For experiment [1], the system named is Myzus persicae (Green Peach Aphid). Briefly: Myzus persicae feeding/residual contact activity, preventive (sunflower leaf discs). It is filed as in vivo. From the text:
(§1) The action to be expected E for a given active ingredient combination obeys the so-called COLBY formula and can be calculated as follows (COLBY, S. R. “Calculating synergistic and antagonistic responses of herbicide combination”. Weeds, Vol. 15, pages 20-22; 1967): • ppm=milligrams of active ingredient(=a.i.) per liter of spray mixture • X=% action by active ingredient A) using p ppm of active ingredient • Y=% action by active ingredient B) using q ppm of active ingredient.
(§2) According to COLBY, the expected (additive) action of active ingredients A)+B) using p+q ppm of active ingredient is
(§3) If the action actually observed (O) is greater than the expected action (E), then the action of the combination is super-additive, i.e. there is a synergistic effect. In mathematical terms the synergism factor SF corresponds to O/E. In the agricultural practice an SF of ≧1.2 indicates significant improvement over the purely complementary addition of activities (expected activity), while an SF of ≦0.9 in the practical application routine signals a loss of activity compared to the expected activity.
Myzus persicae (Green Peach Aphid):
feeding/residual contact activity, preventive
Sunflower leaf discs are placed on agar in a 24-well microtiter plate and sprayed with the DMSO test solutions. After drying, the leaf discs are infested with an aphid population of mixed ages. […] (1 PPM=1 mg l^−1)

The test system of experiment [2] is Tetranychus urticae (Two-Spotted Spider Mite). Briefly: Tetranychus urticae feeding/contact activity, preventive (bean leaf discs). It is filed as in vivo.
Description: as §1, §2, §3
Tetranychus urticae (Two-Spotted Spider Mite):
feeding/contact activity, preventive
Bean leaf discs on agar in 24-well microtiter plates are sprayed with the DMSO test solutions. After drying, the leaf discs are infested with mite populations of mixed ages. […] (1 PPM=1 mg l^−1)

The mark [3] stands for this setting: single active, 3.125 PPM AI, after 5 days.
Setting [4] is: single active, 6.25 PPM AI, after 5 days.
[5] abbreviates: single active, 12.5 PPM AI, after 5 days.
Where [6] appears, read: single active, 100 PPM AI, after 5 days.
Setting [7] is: single active, 200 PPM AI, after 5 days.
Where [8] appears, read: single active, 400 PPM AI, after 5 days.
[9] abbreviates: single active, 800 PPM AI, after 5 days.
Setting [10] is: single active, 50 PPM AI, after 5 days.

Here are results for 14 compounds from US9414597B2, “Pesticidal mixtures including spiroheterocyclic pyrrolidine diones” (Syngenta Participations AG, priority 2011, dated 2016).

Several values for one entry are separate records, joined by “and”; a condition that tells them apart may be missing. Identical values can stand only once.

On to `CC1(C)[C@H](C(=O)O[C@H](C#N)c2cccc(Oc3ccccc3)c2)[C@@H]1/C=C(\Cl)C(F)(F)F` (racemic) [Lambda cyhalothrin, lambda-cyhalothrin], for which the “AVERAGE DEAD IN % AFTER 5 DAYS” value in experiment [1] (Lambda Cyhalothrin alone, PPM AI r7-r10:50 r11-r14:25) is recorded as 57%; in experiment [2] (setting [3]), 15%.
In the case of `CNC(=O)c1cc(Cl)cc(C)c1NC(=O)c1cc(Br)nn1-c1ncccc1Cl` [Chlorantraniliprol], the “AVERAGE DEAD IN % AFTER 5 DAYS” value in experiment [2] (Chlorantraniliprol alone, PPM AI r6:200 r7:400 r8:800) was 25% and 37%.
Regarding `CNC(=O)c1cc(Cl)cc(C)c1NC(=O)c1cc(Br)nn1-c1ncccc1Cl` [Chlorantraniliprole, chlorantraniliprole], the “AVERAGE DEAD IN % AFTER 5 DAYS” value in experiment [1] (Chlorantraniliprole alone, 50 PPM AI) came out at 0%; in experiment [1] (Table 45, Chlorantraniliprole alone, 50 PPM AI), 0%; in experiment [2] (Chlorantraniliprole alone, 200 PPM AI), 25%; in experiment [2] (Chlorantraniliprole alone, PPM AI r6:25 r7:50 r8:100), 0%.
With `CCOC(=O)OC1=C(c2c(C)cc(Cl)cc2C)C(=O)N(C)C12CCN(OC)CC2` [Compound T1.055], the “AVERAGE DEAD IN % AFTER 5 DAYS” value in experiment [1] (T1.055 alone, 50 PPM AI) was determined as 10%; in experiment [1] (T1.055 alone, PPM AI r6:100 r7:50 r8:25 r9:12.5) it was 0%; in experiment [1] (T1.055 alone, PPM AI r6:100 r7:50 r8:25 r9:12.5 r10:6.25) it was 0%; in experiment [1] (Table 45, T1.055 alone, 50 PPM AI) it was 0%; in experiment [1] (Table 45, T1.055 alone, 100 PPM AI), 25%; in experiment [1] (Table 45, T1.055 alone, 200 PPM AI), 65%. Also, the “AVERAGE DEAD IN % AFTER 5 DAYS” value in experiment [1] (Table 46, T1.055 alone, 50 PPM AI) amounted to 25%; in experiment [1] (Table 48, T1.055 alone, 12.5 PPM AI) it was 0%; in experiment [1] (Table 48, T1.055 alone, 25 PPM AI) it was 0%; in experiment [1] (Table 48, T1.055 alone, 50 PPM AI), 65%; in experiment [1] (Table 48, T1.055 alone, 100 PPM AI) it was 65%; in experiment [1] (Table 48, T1.055 alone, 200 PPM AI) it was 80%. For the same compound, the “AVERAGE DEAD IN % AFTER 5 DAYS” value in experiment [2] (T1.055 alone, 100 PPM AI) is given as 0%; in experiment [2] (T1.055 alone, 200 PPM AI), 0%; in experiment [2] (T1.055 alone, PPM AI r6:200 r7:100 r8:50), 0%.
Regarding `CCOC(=O)OC1=C(c2c(C)cc(C)cc2C)C(=O)N(C)C12CCN(OC)CC2` [Compound T1.058], the “AVERAGE DEAD IN % AFTER 5 DAYS” value turned out to be 0% in experiment [2] (T1.058 alone, 50 PPM AI); 55% in experiment [2] (T1.058 alone, 100 PPM AI); 0% in experiment [2] (T1.058 alone, PPM AI r7:50 r8:25 r9:12.5 r10:6.25 r11:3.125 r12-r15:50).
On to `CCOC(=O)OC1=C(c2c(C)cc(Cl)cc2C)C(=O)NC12CCN(OC)CC2` [Compound T1iii.055], for which the “AVERAGE DEAD IN % AFTER 5 DAYS” value in experiment [1] (T1iii.055 alone, 12.5 PPM AI) is 0%; in experiment [1] (T1iii.055 alone, 25 PPM AI), 0%; in experiment [1] (T1iii.055 alone, PPM AI r6:200 r7:100 r8:50 r9:25, 25 ppm active ingredient), 50%; in experiment [1] (T1iii.055 alone, PPM AI r6:200 r7:100 r8:50 r9:25, 200 ppm active ingredient) it was 80%; in experiment [1] (T1iii.055 alone, PPM AI r7:200 r8:100 r9:50), 0%; in experiment [2] (T1iii.055 alone, 12.5 PPM AI) it was 0%. The “AVERAGE DEAD IN % AFTER 5 DAYS” value in experiment [2] (single active, 1.56 PPM AI, after 5 days) was 0%; in experiment [2] (setting [3]) it was 0%; in experiment [2] (setting [4]), 0%; in experiment [2] (setting [5]) it was 0%.
Consider `CNC(=O)c1cc(C#N)cc(C)c1NC(=O)c1cc(Br)nn1-c1ncccc1Cl` [Cyantraniliprole, cyantraniliprole], for which the “AVERAGE DEAD IN % AFTER 5 DAYS” value in experiment [1] (Cyantraniliprole alone, 1.5 PPM AI) was 0%.
As to `Cc1nn(C)c(/C(OC(=O)C(C)(C)C)=C(\C#N)c2ccc(C(C)(C)C)cc2)c1C` [Cyenopyrafen, cyenopyrafen], the “AVERAGE DEAD IN % AFTER 5 DAYS” value in experiment [1] (Cyenopyrafen alone, 200 PPM AI) worked out at 0%; in experiment [2] (Cyenopyrafen alone, 1.5 PPM AI), 0%; in experiment [2] (single active, 1.5 PPM AI, after 5 days) it was 0%; in experiment [2] (single active, 3 PPM AI, after 5 days), 40%; in experiment [2] (single active, 6 PPM AI, after 5 days) it was 85%; in experiment [2] (single active, 12 PPM AI, after 5 days), 92%.
As to `CC1=NNC(=O)N(/N=C/c2cccnc2)C1` [Pymetrozine, pymetrozine], the “AVERAGE DEAD IN % AFTER 5 DAYS” value in experiment [1] (Pymetrozine alone, 0.4 PPM AI) is recorded as 0%; in experiment [1] (Pymetrozine alone, 0.8 PPM AI) it was 25%; in experiment [1] (Table 48, Pymetrozine alone, 0.8 PPM AI), 25%; in experiment [2] (Pymetrozine alone, 100 PPM AI) it was 0%; in experiment [2] (Pymetrozine alone, 200 PPM AI), 0%; in experiment [2] (setting [6]), 0%. Also, the “AVERAGE DEAD IN % AFTER 5 DAYS” value was 0% in experiment [2] (setting [7]), 0% in experiment [2] (setting [8]) and 50% in experiment [2] (setting [9]).
In the case of `CC(c1ccc(C(F)(F)F)nc1)S(C)(=O)=NC#N` (stereo not drawn) [Sulfoxaflor, sulfoxaflor], the “AVERAGE DEAD IN % AFTER 5 DAYS” value in experiment [1] (Sulfoxaflor alone, 0.2 PPM AI) is recorded as 20%; in experiment [2] (Sulfoxaflor alone, PPM AI r6:50 r7:100 r8:200 r9:400), 0%; in experiment [2] (setting [6]), 0%; in experiment [2] (setting [7]) it was 0%; in experiment [2] (setting [8]), 0%; in experiment [2] (setting [9]) it was 35%.
In the case of `CN1COCN(Cc2cnc(Cl)s2)/C1=N\[N+](=O)[O-]` [Thiamethoxam, thiamethoxam], the “AVERAGE DEAD IN % AFTER 5 DAYS” value amounted to 0% in experiment [1] (Thiamethoxam alone, 0.8 PPM AI); 0% in experiment [2] (Thiamethoxam alone, PPM AI r6:50 r7:100 r8:200 r9:400 r10:100 r11:200 r12:400); 0% in experiment [2] (setting [10]); 0% in experiment [2] (setting [6]); 0% in experiment [2] (setting [7]); 0% in experiment [2] (setting [8]). In experiment [2] (setting [9]), the “AVERAGE DEAD IN % AFTER 5 DAYS” value is on record as 37%.
Turning to abamectin, in experiment [2] (Abamectin alone, PPM AI r6:0.00625 r7:0.0125 r8:0.025 r9:0.05 r10:0.1), the “AVERAGE DEAD IN % AFTER 5 DAYS” value is listed as 0%.
For the compound emamectin benzoate, the “AVERAGE DEAD IN % AFTER 5 DAYS” value in experiment [1] (Emamectin Benzoate alone, PPM AI r7:12.5 r8:25 r9:50 r10:100 r11:200) is 0%; in experiment [1] (Table 46, Emamectin Benzoate alone, 12.5 PPM AI), 0%; in experiment [1] (Table 46, Emamectin Benzoate alone, 25 PPM AI), 0%; in experiment [1] (Table 46, Emamectin Benzoate alone, 50 PPM AI), 0%; in experiment [1] (Table 46, Emamectin Benzoate alone, 100 PPM AI), 0%; in experiment [1] (Table 46, Emamectin Benzoate alone, 200 PPM AI), 0%. The “AVERAGE DEAD IN % AFTER 5 DAYS” value is 0% in experiment [2] (Emamectin Benzoate alone, 0.05 PPM AI) and 0% in experiment [2] (Emamectin Benzoate alone, PPM AI r7:0.1 r8:0.05 r9:0.025 r10:0.0125 r11:0.00625).
With spinetoram, the “AVERAGE DEAD IN % AFTER 5 DAYS” value in experiment [1] (Spinetoram alone, 100 PPM AI) was 0%; in experiment [2] (setting [4]), 0%; in experiment [2] (setting [5]), 25%; in experiment [2] (single active, 25 PPM AI, after 5 days), 80%; in experiment [2] (setting [10]), 95%.
